Consider 1 compound from US8809001B2, “High throughput assays for inhibitors and activators of PAQR receptors” (University of Florida Research Foundation, Inc., priority 2007, dated 2014).

The test system of one test is AdipoR2. The test is described as follows: FET3-lacZ (pFET3-397) reporter repression in yeast expressing AdipoR2. The class given is cell-based, human. To be noted: concentrations as high as 10 μM. An excerpt: (§1) IZH1-4 were cloned into pRS316-GAL1 via gap repair as previously described (Lyons et al., 2004). The triple hemaglutinin epitope (3×HA) tagged construct of the IZH2 gene was generated by replacing the ZRC1 promoter and open reading frame in the YCpZRC1-HA plasmid (MacDiarmid et al., 2002) with those of IZH2. This was accomplished by gap repair of Age I-digested YCpZRC1-HA to generate pIZH2-3×HA. This construct has the IZH2 gene driven by its native promoter and retains the ZRC1 terminator sequence. The native IZH2 promoter was then exchanged with the GAL1 promoter using gap repair of pIZH2-3×HA plasmids cut with EcoN I. AdipoR1 and AdipoR2 were amplified from cDNAs obtained from OpenBiosystems (Accession #: BC010743 and BC051858, respectively). PCR products were cloned into NcoI/BamHI digested pYES260 vector (Melcher, 2000) by gap repair allowing for GAL1-driven expression. Plasmids containing GAL1-driven the TAP (Tandem Affinity Purification) tagged NRG1 and NRG2 constructs were purchased from OpenBiosystems.
Most experiments were performed in a defined EDTA-containing medium known as low iron medium (LIM) (Eide et al., 1992). Iron-deficiency and repletion were generated by adding either 1 μM or 1 mM of FeCl3, respectively, to LIM. 2% galactose was used to fully induce GAL1-driven gene overexpression. Total sugar concentration was maintained at 2% by the addition of raffinose in those experiments in which the % galactose was modulated to decrease expression levels. Cells were allowed to grow to mid-log phase in LIM and β-galactosidase assays on permeabilized yeast were performed as previously described (Lyons et al., 2000). […]
(§2) Assays and growth conditions. […] Cells were allowed to grow to mid-log phase at which time the activity of the FET3 gene was monitored using a FET3-lacZ promoter-reporter construct. lacZ activities are presented as a percentage of activity seen in untreated cells expressing the appropriate empty expression vector control. […]

A further test deals with T1, AdipoR1 (Homo sapiens, UniProt Q96A54).
T1 construct: expressed in transfected cells; host or cells: Saccharomyces cerevisiae BY4742, GAL1-driven pYES260 plasmid
T1 sequence (Q96A54 1-375): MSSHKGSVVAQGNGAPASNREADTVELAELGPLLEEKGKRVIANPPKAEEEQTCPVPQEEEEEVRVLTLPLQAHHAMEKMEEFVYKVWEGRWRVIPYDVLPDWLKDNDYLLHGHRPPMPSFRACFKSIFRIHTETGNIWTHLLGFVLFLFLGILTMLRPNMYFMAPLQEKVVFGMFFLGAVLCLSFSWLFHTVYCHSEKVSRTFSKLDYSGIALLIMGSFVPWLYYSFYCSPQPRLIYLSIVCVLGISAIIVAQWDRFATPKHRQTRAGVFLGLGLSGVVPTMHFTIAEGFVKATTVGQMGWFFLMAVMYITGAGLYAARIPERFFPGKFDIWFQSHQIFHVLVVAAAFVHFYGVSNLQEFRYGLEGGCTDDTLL
The test can be described thus: FET3-lacZ (pFET3-397) reporter repression in yeast expressing AdipoR1. The class given is cell-based. To be noted: concentrations as high as 10 μM.
Text: as §1, with “OpenBiosystems. […]” for “OpenBiosystems.”
as §2

Take `CC(=O)[C@H]1CC[C@H]2[C@@H]3CCC4=CC(=O)CC[C@]4(C)[C@H]3CC[C@]12C` [Progesterone, progesterone]: in the test on AdipoR2, the “response of AdipoR2 to progesterone” value was “do not respond”. Further, the “response of AdipoR1 to progesterone” value on AdipoR1 is listed as “do not respond”.
